Source: paper PMC5225183, “Fingerprinting of neurotoxic compounds using a mouse embryonic stem cell dual luminescence reporter assay” (Archives of Toxicology, 2016)
Read-outs that look alike come from different tables or passages of the source. Marks after values point to notes of the source that are not given here.

B1: G-CSF: Hormone stimulating granulopoiesis; Peptide/Protein (protein, UniProt P09919 31-207, looked up)
Granulocyte …: TPLGPASSLPQSFLLKCLEQVRKIQGDGAALQEKLVSECATYKLCHPEELVLLGHSLGIPWAPLSSCPSQALQLAGCLSQLHSGLFLYQGLLQALEGISPELGPTLDTLQLDVADFATTIWQQMEELGMAPALQPTQGAMPAFASAFQRRAGGVLVASHLQSFLEVSYRVLRHLAQP

Legend:
[1] = cited from earlier work; for Concentration in humans (increase in blood mercury levels after vaccination): ref Pichichero et al. ([2008])
CGR8-2Luc ESCs = test system: CGR8-2Luc ESCs
In short: (§1)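 Mouse CGR8-2Luc ESCs in LIF-containing medium were exposed to compounds for 48 h; ESC-derived neurons (MS5 co-culture, replated day 5 in N2/bFGF medium) were exposed from day 6 to day 8. Read-outs: Tα1-FLuc, EF1α-RLuc and PI DNA content as % of control. LOAEL = lowest concentration giving a significant decrease versus baseline.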

ESC-derived neurons = test system: ESC-derived neurons
In short: as §1

[2] = test system: Tubulin α1 (Tα1) promoter
In short: (§2)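 Mouse CGR8 ESCs carrying Tα1-firefly and EF1α-Renilla luciferase reporters, treated either undifferentiated (48 h exposure after 24 h plating) or as MS5-induced neurons (exposure day 6 to day 8). Dual-luciferase luminescence expressed as % promoter activity versus DMSO control wells; 5 µM methylmercury as positive control.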

EF1α promoter = test system: EF1α promoter
In short: as §2

[3] = Table S1, three classes; ref per compound in the footnotes of Table S1; cited from earlier work
[4] = undifferentiated ESCs, 48 h exposure, PI assay (cytotoxicity)
[5] = ESC-derived neurons, 48 h exposure, PI assay (cytotoxicity)
[6] = undifferentiated ESCs, 48 h exposure, lowest tested concentration with statistically significant decrease
[7] = ESC-derived neurons, 48 h exposure
[8] = undifferentiated ESCs, 48 h exposure

Molecule | Concentration in humans ([1]; ref Zimmer et al. ([2014])) | LOAEL ESC DNA (CGR8-2Luc ESCs; [4]) [µM] | LOAEL Neurons DNA (ESC-derived neurons; [5]) [µM] | LOAEL ESC Tα1 [2, 6] [µM] | LOAEL Neurons EF1α (EF1α promoter; [7]) [µM] | LOAEL ESC EF1α (EF1α promoter; [8]) [µM] | class based on clinical evidence for neurotoxicity [3] | other results
COc1cc2ncnc(Nc3ccc(F)c(Cl)c3)c2cc1OCCCN1CCOCC1 [Gefitinib] | 1.2^k µM | 50 | 50 | 50 | 50 | 50 | Possibly (developmental) | 
[Br][Hg][Br] [Mercury bromide] |  | 5 | >10 | 5 | >10 | 5 | Possibly (developmental) | cytotoxicity on ESCs (CGR8-2Luc ESCs): highly cytotoxic
COCC(=O)O [Methoxyacetic acid] |  | >50 | >50 | >50 | >50 | >50 | Possibly (developmental) | Concentration in humans (human exposure concentration) ([1]; ref Zimmer et al. ([2014])): 60^k (human exposure concentration) µM; effect on neural promoter activity in ESCs [2]: increase
[CH3][Hg][Cl] [Methylmercury] |  | 0.5 | 0.5 | 0.5 | 5 | 0.5 | Well-established (developmental) | Concentration in humans ([1]; ref Krug et al. ([2013b])): 0.005–0.5^e µM; Concentration in humans ([1]; ref Krug et al. ([2013b]), listed as methylmercury): 0.005 to 0.5 µM
COC(=O)c1ccc2c(c1)NC(=O)/C2=C(\Nc1ccc(N(C)C(=O)CN2CCN(C)CC2)cc1)c1ccccc1 [Nintedanib] | 0.074^k µM | 5 | 5 | 0.5 | 5 | 5 | Possibly (developmental) | 
COc1ccc2[nH]c([S+]([O-])Cc3ncc(C)c(OC)c3C)nc2c1 (stereo not shown) [Omeprazole] |  | >50 | >50 | >50 | >50 | >50 | Non-neurotoxic | Concentration in humans ([1]; ref Linden et al. ([2007])): 0.8^b µM
Brc1ccc(Oc2cc(Br)c(Br)cc2Br)c(Br)c1 [PBDE-99] |  | >50 | 5 | 50 | 5 | >50 | Well-established (developmental) | Concentration in humans (human exposure concentration) ([1]; ref Zimmer et al. ([2014])): 97*10^−6k (human exposure concentration) µM; Human exposure concentrations ([1]; ref Zimmer et al. ([2014])): 5 to 100 pM; effect on cell number in neurons (ESC-derived neurons): moderate cell number decrease
Cc1[nH]c2ccccc2c1CCNCc1ccc(/C=C/C(=O)NO)cc1 [Panobinostat] |  | 0.05 | 0.05 | 0.05 | 50 | 0.05 | Possibly (developmental) | Concentration in humans ([1]; ref Bauer et al. ([2014])): 0.036–0.045^h µM
CC(C)NCC(O)COc1cccc2ccccc12 (stereo not shown) [Propranolol] |  | >50 | 50 | 50 | >50 | 50 | Non-neurotoxic | Concentration in humans ([1]; ref International Programme on Chemical Safety): 0.12–0.19^d µM
O=C(NC[C@H]1CN(c2ccc(N3CCOCC3=O)cc2)C(=O)O1)c1ccc(Cl)s1 [Rivaroxaban] | 0.69^k µM | >10 | >10 | >10 | >10 | >10 | Non-neurotoxic | 
C[CH2][Hg][S]c1ccccc1C(=O)[O-].[Na+] [Thimerosal] |  |  |  |  |  |  | Possibly (developmental) | increase in blood mercury levels after vaccination ([1]; conversion of <5 ng/ml, ref Pichichero et al. [2008]): ~25 nM; Concentration in humans (increase in blood mercury levels after vaccination) [1]: Max 5 ng/ml^j; Concentration in humans (increase in blood mercury levels after vaccination) ([1]; listed as thimerosal): < 5 ng/mL; LOAEL ESC DNA (CGR8-2Luc ESCs): 0.5 µM; LOAEL Neurons DNA (ESC-derived neurons): 0.5 µM; LOAEL ESC Tα1 [2]: 0.5 µM; LOAEL ESC EF1α (EF1α promoter): 0.5 µM; LOAEL Neurons EF1α (EF1α promoter): 0.5 µM
O=c1[nH]c(=O)c2[nH]c(=O)[nH]c2[nH]1 [Uric acid] |  | >50 | >50 | >50 |  | >50 | Non-neurotoxic | LOAEL Neurons EF1α (EF1α promoter; mouse, 48 h): >50 µM
Erythropoietin: EpoR agonist controlling erythropoiesis and neurogenesis; Peptide/Protein | 0.0003^k µM |  |  | >0.238 | >0.238 | >0.238 | Non-neurotoxic | LOAEL ESC DNA (CGR8-2Luc ESCs): >0.238 µM; LOAEL Neurons DNA (ESC-derived neurons): >0.238 µM; effect on general promoter activity in neurons (EF1α promoter): selectively increased
Oxytocin | 0.002^k µM | >0.1 | >0.1 | >0.1 | >0.1 | >0.1 | Non-neurotoxic | 
B1 | 1.3*10^−6k µM |  |  | >0.00266 | >0.00266 | >0.00266 | Non-neurotoxic | LOAEL ESC DNA (CGR8-2Luc ESCs): >0.00266 µM; LOAEL Neurons DNA (ESC-derived neurons): >0.00266 µM; effect on general promoter activity in neurons (EF1α promoter): selectively increased
